Measured values taken from PMC10604610, “An Induced Pluripotent Stem Cell-Derived Human Blood–Brain Barrier (BBB) Model to Test the Crossing by Adeno-Associated Virus (AAV) Vectors and Antisense Oligonucleotides” (Biomedicines, 2023).

What was measured:
[1] = system: iPSC-derived BMECs; conditions: three iPSC-derived BMEC models (4603, 19-9-7T, AD3-CL1); Transwell polyester insert 0.4 μm pore, 900,000 cells/cm^2, 48 h culture; apical to basal; tracer 0.1 mg/mL in Ringer HEPES buffer pH 7.4; 37 °C, 60 min; fluorescence plate reader; mean of triplicate filters
[2] = system: hCMEC/D3 cells; conditions: hCMEC/D3 on collagen I-coated Transwell polyester insert 0.4 μm pore, 900,000 cells/cm^2, 48 h; apical to basal; tracer 0.1 mg/mL in Ringer HEPES buffer pH 7.4; 37 °C, 60 min; fluorescence; mean of triplicate filters
[3] = system: undifferentiated iPSCs (4603); conditions: undifferentiated iPSCs (4603) on collagen IV/fibronectin-coated Transwell insert, 900,000 cells/cm^2, 48 h; apical to basal; tracer 0.1 mg/mL in Ringer HEPES buffer pH 7.4; 37 °C, 60 min; fluorescence; mean of triplicate filters

Row | Compound | % Permeability (percentage of tracer present in the basal chamber) [1] | % Permeability (percentage of tracer present in the basal chamber) [2] | % Permeability (percentage of tracer present in the basal chamber) [3]
1 | O=C([O-])c1ccccc1-c1c2ccc(=O)cc-2oc2cc([O-])ccc12.[Na+].[Na+] [Na-F, sodium fluorescein] | about 5% | significantly higher than in iPSC-derived BMECs but significantly lower than that of control iPSCs | –
2 | lucifer yellow [LY] | Less than 2% | around 16% | around 16%
